Test results as given in publication PMC6269719, “Extraction of Antioxidant Components from Bidens pilosa Flowers and Their Uptake by Human Intestinal Caco-2 Cells” (Molecules, 2013).

What was measured:
Caco-2 cells = assay: Bidirectional transport across Caco-2 cell monolayers; details: pH 7.4, up to 60 min; for Papp, apical to basolateral flux: A→B, compounds tested within EM 1 mg/mL, mannitol 50 μM, 14-day monolayers
Description: (§1) To investigate the intestinal absorption and transport properties of the three DiCQAs and three PGAs, 14-day cultured Caco-2 monolayer cells were used for the bidirectional transport study.
(§2) It was cultured in Dulbecco’s Modified Eagle Medium (DMEM medium, Hyclone, Logan, UT, USA) containing high glucose (4.5 g/L) plus 10% fetal bovine serum (Biological Industries, Beit Haemek, Israel), 1% L-glutamine and 1% penicillin-streptomycin (Hyclone) at 37 °C, 5% CO2 with constant humidity controlled environment. The medium was replaced three times a week during cell growth and differentiation. Cells used in this study were between passages 25 and 40.
(§3) After the cells in the flask grew to 90%–100% confluency, cells were trypsinized and seeded on 12 mm transwells with 0.4 µm pore polyester membrane insert (product #3460, Corning Inc., Corning, NY, USA) at a density 2 × 10^5 cells/mL. Culture medium (0.5 mL and 1.5 mL, respectively) was added into the space between the transwell and the plate. The culture was incubated at 37 °C under 5% CO2 atmosphere and the medium was changed fresh every 48 h. The transepithelial electrical resistance (TEER) was measured with Millicell-ERS epithelial Voltohmmeter (Millipore, Bedford, MA, USA), which was reflected to the tightness of intercellular junctions and only cells with TEER (in Ω/cm^2) >300 Ω/cm^2 (at 14 day) were used for permeability study.
(§4) Before conducting the permeation test, the trasnswell insert was emerged and rinsed in 25 mM HEPES (pH 7.4 Hank’s Balanced Salt Solution, HBSS) and rinsed twice at 37 °C under 5% CO2 atmosphere, each time for 30 min. The paracellular marker molecule mannitol (low permeability), propranolol (highly permeability), and EM fraction (1 mg/mL) were separately dissolved in DMSO and diluted with HBSS to final concentrations of 50 μM, 10 μM, and 1 mg/mL (at non-cytotoxic concentration), respectively. The solutions were respectively transferred into the apical and basolateral zones of the transwell insert with the other side filled up with HBSS. The same pH (7.4) was used both in apical-to-basolateral (A→B) and basolateral-to-apical (B→A) transport directions during each experiment. The whole apparatus was incubated at 37 °C under 5% CO2 atmosphere and the permeation was examined at time point 5, 15, 30, and 60 min, respectively. Permeates obtained from various direction were analyzed with HPLC and LC-MS according to the aforementioned method. The apparent permeability coefficients (Papp, cm/s) and the efflux ratio were calculated according to the literature: Papp = (V/A × C0) × (dQ/dt) where V is the volume of receiver part (0.5 mL and/or 1.5 mL).
(§5) A is the surface area of the cell monolayer (1.1 cm^2).
(§6) C0 is the initial concentration of the extract (1 mg/mL).
(§7) dQ/dt is the cumulative transport rate (mg/mL/min). Efflux ratio = Papp,B→A/Papp,A→B

db/db mice = test system: db/db mice; parameters: method as in doi:10.1016/j.jfca.2010.03.025; details: i.p., compared to the other two polyacetylenic glucosides; cited from earlier work
[1] = Bidirectional transport across Caco-2 cell monolayers; details: human, Caco-2, pH 7.4
Description: as §1, §2, §3, §4, §5, §6, §7

CC#CC#CC#CC#CCCC(CO)O[C@@H]1O[C@H](CO)[C@@H](O)[C@H](O)[C@H]1O (stereo partly drawn) [PGA 5, 2-β-D-glucopyranosyloxy-1-hydroxytrideca-5,7,9,11-tetrayne]
Papp, apical to basolateral flux (Caco-2 cells): lower than the Papp for mannitol | Papp, basolateral to apical flux (Caco-2 cells; B→A, compound within EM 1 mg/mL): closed to that of propranolol | Increasing serum insulin, reducing blood glucose levels and glycosylated HbA1c levels (db/db mice): most effective compound

CC#CC#CC#C/C=C/CCC(CO)O[C@@H]1O[C@H](CO)[C@@H](O)[C@H](O)[C@H]1O (stereo partly drawn) [PGA 4, 2-β-D-glucopyranosyloxy-1-hydroxy-5(E)-tridecene-7,9,11-triyne]
Papp, apical to basolateral flux (Caco-2 cells): higher than the paracellular transport marker mannitol | efflux ratio at 60 min, 1 mg/mL [1]: 32.1

OC[C@@H](O)[C@@H](O)[C@H](O)[C@H](O)CO [mannitol, reference compound]
Papp A→B at 60 min, 50 μM [1]: 0.43 ± 0.1 ×10⁻⁶ cm/s

O=C(/C=C/c1ccc(O)c(O)c1)O[C@H]1[C@H](O)C[C@](O)(C(=O)O)C[C@H]1OC(=O)/C=C/c1ccc(O)c(O)c1 [DiCQA 3, 4,5-di-O-caffeoylquinic acid]
Papp, apical to basolateral flux (Caco-2 cells): higher than the paracellular transport marker mannitol

CC#CC#CC#C/C=C/CCC(CCO)O[C@@H]1O[C@H](CO)[C@@H](O)[C@H](O)[C@H]1O (stereo partly drawn) [PGA 6, 3-β-D-glucopyranosyloxy-1-hydroxy-6(E)-tetradecene-8,10,12-triyne]
Papp, apical to basolateral flux (Caco-2 cells): higher than the paracellular transport marker mannitol | efflux ratio at 60 min, 1 mg/mL [1]: 6.03

O=C(/C=C/c1ccc(O)c(O)c1)O[C@@H]1[C@@H](OC(=O)/C=C/c2ccc(O)c(O)c2)C[C@@](O)(C(=O)O)C[C@@H]1O [DiCQA 1, 3,4-di-O-caffeoylquinic acid]
Papp, apical to basolateral flux (Caco-2 cells): higher than the paracellular transport marker mannitol

CC(C)NCC(O)COc1cccc2ccccc12 (centres unmarked) [propranolol, reference compound]
Papp at 60 min, 10 μM [1]: 39.4 ± 4.12 ×10⁻⁶ cm/s
